25 molecules from patent publication US10695334B2, “Heteroaromatic carboxamide derivatives as plasma kallikrein inhibitors” (Boehringer Ingelheim International GmbH, priority 2018, dated 2020) can be followed below.

This test addresses Human PKK (Homo sapiens (Human), UniProt P03952). Briefly: Inhibition of PKK, endpoint assay (human PKK). The test is classed as biochemical. To be noted: substrate H-Pro-Phe-Arg-AMC, 1 h room temperature. How it is done: Subsequently, PPACK II (Calbiochem) was added as a stop solution to achieve a final concentration of 1 μM and fluorescence was measured using an Envision Reader (PerkinElmer) with the wavelength excitation setting of 355 nm and the wavelength emission setting of 460 nm.

Counter-ions that a name gives are not always drawn.

Chain of Human PKK (P03952 391-638): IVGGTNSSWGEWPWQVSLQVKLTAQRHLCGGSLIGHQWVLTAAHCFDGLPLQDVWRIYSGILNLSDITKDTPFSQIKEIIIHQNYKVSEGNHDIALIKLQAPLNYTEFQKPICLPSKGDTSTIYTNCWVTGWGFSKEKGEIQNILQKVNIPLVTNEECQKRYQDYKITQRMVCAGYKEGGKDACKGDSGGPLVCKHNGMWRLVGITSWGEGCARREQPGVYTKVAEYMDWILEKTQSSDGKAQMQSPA
Chain of Human PKK (P03952 20-390 partner): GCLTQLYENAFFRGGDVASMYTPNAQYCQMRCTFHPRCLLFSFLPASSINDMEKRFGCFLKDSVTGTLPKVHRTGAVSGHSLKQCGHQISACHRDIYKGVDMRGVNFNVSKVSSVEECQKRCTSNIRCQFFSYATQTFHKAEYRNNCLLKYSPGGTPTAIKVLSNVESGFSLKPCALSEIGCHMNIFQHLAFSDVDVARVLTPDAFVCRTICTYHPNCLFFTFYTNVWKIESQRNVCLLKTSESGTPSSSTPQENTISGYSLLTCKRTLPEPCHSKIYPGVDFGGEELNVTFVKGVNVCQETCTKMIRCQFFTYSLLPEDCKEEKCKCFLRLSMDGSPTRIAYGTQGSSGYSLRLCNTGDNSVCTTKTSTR

`Cc1nc(N2CC(C#N)C2)ccc1Cn1cc(C(=O)N[C@@H]2CCc3c2n[nH]c3C)cn1` [Example 57, 1-{[6-(3-Cyanoazetidin-1-yl)-2-methylpyridin-3-yl]methyl}-N-[(6R)-3-methyl-2H,4H,5H,6H-cyclopenta[c]pyrazol-6-yl]-1H-pyrazole-4-carboxamide] showed an IC50 of 37 nM.

In turn, `Cc1nc(N2CC(n3cccn3)C2)ccc1Cn1cc(C(=O)N[C@@H]2CCc3c2n[nH]c3C)cn1` [Example 58, N-[(6R)-3-Methyl-2H,4H,5H,6H-cyclopenta[c]pyrazol-6-yl]-1-({2-methyl-6[3-(1H-pyrazol-1-yl)azetidin-1-yl]pyridin-3-yl}methyl)-1H-pyrazole-4-carboxamide] displayed an IC50 of 20 nM. This IC50 is about 1.9-fold lower than that of the molecule before.

Consider `Cc1nc(N2C[C@@H]3[C@@H](O)[C@@H]3C2)ccc1Cn1cc(C(=O)N[C@@H]2CCc3c2n[nH]c3C)cn1` [Example 59, 1-({6-[(1R,5S,6R)-6-Hydroxy-3-azabicyclo[3.1.0]hexan-3-yl]-2-methylpyridin-3-yl}methyl)-N-[(6R)-3-methyl-2H,4H,5H,6H-cyclopenta[c]pyrazol-6-yl]-1H-pyrazole-4-carboxamide], for which the IC50 turned out to be 17 nM.

In turn, `Cc1nc(N2CCC(C(F)(F)F)C2)ccc1Cn1cc(C(=O)N[C@@H]2CCc3c2n[nH]c3C)cn1` (stereo partly drawn) [Example 60, N-[(6R)-3-Methyl-2H,4H,5H,6H-cyclopenta[c]pyrazol-6-yl]-1-({2-methyl-6-[3-(trifluoromethyl)pyrrolidin-1-yl]pyridin-3-yl}methyl)-1H-pyrazole-4-carboxamide] returned an IC50 of 7 nM.

As to `Cc1nc(N2CC(C)C2)ccc1Cn1cc(C(=O)N[C@@H]2CCc3c2n[nH]c3C)cn1` [Example 61, N-[(6R)-3-Methyl-2H,4H,5H,6H-cyclopenta[c]pyrazol-6-yl]-1-{[2-methyl-6-(3-methylazetidin-1-yl)pyridin-3-yl]methyl}-1H-pyrazole-4-carboxamide], the IC50 came to 5 nM.

For `Cc1nc(N2CC3CCCC3C2)ccc1Cn1cc(C(=O)N[C@@H]2CCc3c2n[nH]c3C)cn1` (stereo partly drawn) [Example 62, N-[(6R)-3-Methyl-2H,4H,5H,6H-cyclopenta[c]pyrazol-6-yl]-1-[(2-methyl-6-{octahydrocyclopenta[c]pyrrol-2-yl}pyridin-3-yl)methyl]-1H-pyrazole-4-carboxamide], the IC50 amounted to 7 nM.

For the molecule `Cc1nc(N2CC3(CCOCC3)C2)ccc1Cn1cc(C(=O)N[C@@H]2CCc3c2n[nH]c3C)cn1` [Example 63, N-[(6R)-3-Methyl-2H,4H,5H,6H-cyclopenta[c]pyrazol-6-yl]-1-[(2-methyl-6-{7-oxa-2-azaspiro[3.5]nonan-2-yl]pyridin-3-yl)methyl]-1H-pyrazole-4-carboxamide], 85 nM corresponded to half-maximal inhibition (IC50).

The molecule `Cc1nc(N2CC3CC(C2)O3)ccc1Cn1cc(C(=O)N[C@@H]2CCc3c2n[nH]c3C)cn1` [Example 64, N-[(6R)-3-Methyl-2H,4H,5H,6H-cyclopenta[c]pyrazol-6-yl]-1-[(2-methyl-6-{6-oxa-3-azabicyclo[3.1.1]heptan-3-yl}pyridin-3-yl)methyl]-1H-pyrazole-4-carboxamide] yielded an IC50 of 32 nM.

With `Cc1nc(N2CCCCCC2)ccc1Cn1cc(C(=O)N[C@@H]2CCc3c2n[nH]c3C)cn1` [Example 65, 1-{[6-(Azepan-1-yl)-2-methylpyridin-3-yl]methyl}-N-[(6R)-3-methyl-2H,4H,5H,6H-cyclopenta[c]pyrazol-6-yl]-1H-pyrazole-4-carboxamide], the midpoint of inhibition, the IC50, lay at 10 nM.

`Cc1nc(N2CCC3C(CC2)C3(F)F)ccc1Cn1cc(C(=O)N[C@@H]2CCc3c2n[nH]c3C)cn1` (stereo partly drawn) [Example 66, 1-[(6-{8,8-Difluoro-4-azabicyclo[5.1.0]octan-4-yl]-2-methylpyridin-3-yl)methyl]-N-[(6R)-3-methyl-2H,4H,5H,6H-cyclopenta[c]pyrazol-6-yl]-1H-pyrazole-4-carboxamide] displayed an IC50 of 51 nM.

In turn, `Cc1nc(N2CC3CCC3C2)ccc1Cn1cc(C(=O)N[C@@H]2CCc3c2n[nH]c3C)cn1` (stereo partly drawn) [Example 68, 1-[(6-{3-Azabicyclo[3.2.0]heptan-3-yl}-2-methylpyridin-3-yl)methyl]-N-[(6R)-3-methyl-2H,4H,5H,6H-cyclopenta[c]pyrazol-6-yl]-1H-pyrazole-4-carboxamide] returned an IC50 of 4 nM.

`Cc1nc(N2CC(C(F)(F)F)C2)ccc1Cn1cc(C(=O)N[C@@H]2CCc3c2n[nH]c3C)cn1` [Example 69, N-[(6R)-3-Methyl-2H,4H,5H,6H-cyclopenta[c]pyrazol-6-yl]-1-({2-methyl-6-[3-(trifluoromethyl)azetidin-1-yl]pyridin-3-yl}methyl)-1H-pyrazole-4-carboxamide] yielded an IC50 of 17 nM.

For the molecule `Cc1nc(N2CC(C(C)C)C2)ccc1Cn1cc(C(=O)N[C@@H]2CCc3c2n[nH]c3C)cn1` [Example 70, N-[(6R)-3-Methyl-2H,4H,5H,6H-cyclopenta[c]pyrazol-6-yl]-1-({2-methyl-6-[3-(propan-2-yl)azetidin-1-yl]pyridin-3-yl}lmethyl)-1H-pyrazole-4-carboxamide], half-maximal inhibition (IC50) was put at 13 nM.

`Cc1nc(N2C[C@H]3COC[C@H]3C2)ccc1Cn1cc(C(=O)N[C@@H]2CCc3c2n[nH]c3C)cn1` [Example 72, 1-({6-[(3aR,6aS)-Hexahydro-1H-furo[3,4-c]pyrrol-5-yl]-2-methylpyridin-3-yl}methyl)-N-[(6R)-3-methyl-2H,4H,5H,6H-cyclopenta[c]pyrazol-6-yl]-1H-pyrazole-4-carboxamide] registered an IC50 of 36 nM.

Regarding `Cc1nc(N2CCC3(CCOC3)C2)ccc1Cn1cc(C(=O)N[C@@H]2CCc3c2n[nH]c3C)cn1` (stereo partly drawn) [Example 73, N-[(6R)-3-Methyl-2H,4H,5H,6H-cyclopenta[c]pyrazol-6-yl]-1-[(2-methyl-6-{2-oxa-7-azaspiro[4.4]nonan-7-yl}pyridin-3-yl)methyl]-1H-pyrazole-4-carboxamide], the IC50 came to 17 nM.

In the case of `Cc1nc(N2CC(F)(C(F)(F)F)C2)ccc1Cn1cc(C(=O)N[C@@H]2CCc3c2n[nH]c3C)cn1` [Example 74, 1-({6-[3-Fluoro-3-(trifluoromethyl)azetidin-1-yl]-2-methylpyridin-3-yl}methyl)-N-[(6R)-3-methyl-2H,4H,5H,6H-cyclopenta[c]pyrazol-6-yl]-1H-pyrazole-4-carboxamide], the IC50 is 38 nM.

`Cc1nc(N2C[C@@H]3CC(F)(F)C[C@@H]3C2)ccc1Cn1cc(C(=O)N[C@@H]2CCc3c2n[nH]c3C)cn1` [Example 75, 1-({6-[(3aR,6aS)-5,5-Difluoro-octahydrocyclopenta[c]pyrrol-2-yl]-2-methylpyridin-3-yl}-methyl)-N-[(6R)-3-methyl-2H,4H,5H,6H-cyclopenta[c]pyrazol-6-yl]-1H-pyrazole-4-carboxamide] gave an IC50 of 19 nM.

Consider `Cc1nc(N2CC3(CC(O)C3)C2)ccc1Cn1cc(C(=O)N[C@@H]2CCc3c2n[nH]c3C)cn1` [Example 76, 1-[(6-{6-Hydroxy-2-azaspiro[3.3]heptan-2-yl}-2-methylpyridin-3-yl)methyl]-N-[(6R)-3-methyl-2H,4H,5H,6H-cyclopenta[c]pyrazol-6-yl]-1H-pyrazole-4-carboxamide], for which the IC50 stood at 572 nM.

Consider `Cc1nc(N2CCC3(C2)CC3(F)F)ccc1Cn1cc(C(=O)N[C@@H]2CCc3c2n[nH]c3C)cn1` (stereo partly drawn) [Example 78, 1-[(6-{1,1-Difluoro-5-azaspiro[2.4]heptan-5-yl}-2-methylpyridin-3-yl)methyl]-N-[(6R)-3-methyl-2H,4H,5H,6H-cyclopenta[c]pyrazol-6-yl]-1H-pyrazole-4-carboxamide], for which the IC50 amounted to 9 nM.

Molecule `Cc1nc(N2CC3C(C2)C3(C)C)ccc1Cn1cc(C(=O)N[C@@H]2CCc3c2n[nH]c3C)cn1` (stereo partly drawn) [Example 80, 1-[(6-{6,6-Dimethyl-3-azabicyclo[3.1.0]hexan-3-yl]-2-methylpyridin-3-yl)methyl]-N-[(6R)-3-methyl-2H,4H,5H,6H-cyclopenta[c]pyrazol-6-yl]-1H-pyrazole-4-carboxamide] came in with an IC50 of 9 nM.

Turning to `Cc1nc(N2CC(c3ccc(F)cc3)C2)ccc1Cn1cc(C(=O)N[C@@H]2CCc3c2n[nH]c3C)cn1` [Example 81, 1-({6-[3-(4-Fluorophenyl)azetidin-1-yl]-2-methylpyridin-3-yl}methyl)-N-[(6R)-3-methyl-2H,4H,5H,6H-cyclopenta[c]pyrazol-6-yl]-1H-pyrazole-4-carboxamide], the IC50 is 161 nM.

Take `Cc1nc(N2CC[C@](C)(O)C2)ccc1Cn1cc(C(=O)N[C@@H]2CCc3c2n[nH]c3C)cn1` [Example 83, 1-({6-[(3S)-3-Hydroxy-3-methylpyrrolidin-1-yl]-2-methylpyridin-3-yl}methyl)-N-[(6R)-3-methyl-2H,4H,5H,6H-cyclopenta[c]pyrazol-6-yl]-1H-pyrazole-4-carboxamide]: the IC50 is 41 nM.

`Cc1nc(N2CC3C(C2)C3(F)F)ncc1Cn1cc(C(=O)N[C@@H]2CCc3c2n[nH]c3C)cn1` (stereo partly drawn) [Example 84, 1-[(2-{6,6-Difluoro-3-azabicyclo[3.1.0]hexan-3-yl}-4-methylpyrimidin-5-yl)methyl]-N-[(6R)-3-methyl-2H,4H,5H,6H-cyclopenta[c]pyrazol-6-yl]-1H-pyrazole-4-carboxamide, TFA salt] displayed an IC50 of 2 nM.

In the case of `Cc1nc(N2CC3C(C2)C3(F)F)ncc1Cn1cc(C(=O)N[C@@H]2CCc3c(C)n[nH]c32)nn1` (stereo partly drawn) [Example 85, 1-[(2-{6,6-Difluoro-3-azabicyclo[3.1.0]hexan-3-yl}-4-methylpyrimidin-5-yl)methyl]-N-[(6R)-3-methyl-1H,4H,5H,6H-cyclopenta[c]pyrazol-6-yl]-1H-1,2,3-triazole-4-carboxamide], the IC50 was 4 nM.

Molecule `Cc1nc(N2CC3CC3C2)ncc1Cn1cnc(C(=O)N[C@@H]2CCc3c2n[nH]c3C)c1` (stereo partly drawn) [Example 91, 1-[(2-{3-Azabicyclo[3.1.0]hexan-3-yl}-4-methyl-pyrimidin-5-yl)methyl]-N-[(6R)-3-methyl-2H,4H,5H,6H-cyclopenta[c]pyrazol-6-yl]-1H-imidazole-4-carboxamide] yielded an IC50 of 3 nM.

One may read the IC50 as the concentration that gives 50% inhibition.
